The target of the test is T1, CHIKV E2 protein (Chikungunya virus, UniProt Q8JUX5).
T1 construct: incubated with varying concentrations of biotin conjugated CHIKV E2 protein
T1 sequence (Q8JUX5 326-748 limits assumed): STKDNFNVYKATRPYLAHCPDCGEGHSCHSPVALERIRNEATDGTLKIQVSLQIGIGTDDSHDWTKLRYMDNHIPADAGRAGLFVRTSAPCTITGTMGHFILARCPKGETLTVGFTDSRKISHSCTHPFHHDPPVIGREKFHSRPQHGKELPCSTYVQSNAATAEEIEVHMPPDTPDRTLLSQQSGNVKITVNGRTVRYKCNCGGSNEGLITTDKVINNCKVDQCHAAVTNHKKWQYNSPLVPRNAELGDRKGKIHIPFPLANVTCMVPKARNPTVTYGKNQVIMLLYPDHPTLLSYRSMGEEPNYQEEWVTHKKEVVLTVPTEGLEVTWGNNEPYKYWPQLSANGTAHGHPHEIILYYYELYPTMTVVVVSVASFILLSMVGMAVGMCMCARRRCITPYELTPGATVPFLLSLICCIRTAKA
The test is described as follows: LUMINEX binding assay (sandwich-type) of bead-attached capture agents with biotin conjugated CHIKV E2 protein. The following applies: for EC50: FIG. 9. As for the experimental part:
Referring to FIG. 4, the binding performance of each capture agent is determined using a LUMINEX® binding assay, which is essentially the same as a sandwich-type ELISA, where the peptides are attached to a bead as a one-arm polyethylene glycol (PEG) or three-arm PEG construct. By allowing these beads to interact with varying concentrations of the CHIKV E2 protein, one can determine and compare the binding performance of each capture agent construct. A smaller value of the variable on the horizontal axis at the inflection point of a given plot for a corresponding capture agent indicates stronger binding for the corresponding capture agent with respect to the target protein or target molecule.
Referring to FIG. 4, the assay for an illustrative example was performed on a LUMINEX® 200 instrument. LUMINEX®'s xMAP technology drives multiplexed assay capabilities by combining fluidics, optics, and digital signal processing with microsphere technology. The LUMINEX® 200 is capable of testing up to 100 analytes simultaneously from a single sample and is the leading multiplex immunoassay technology. In general, the color-coded microspheres are the substrate on which the solution phase assays are performed, where a specific microsphere color corresponds to an individual receptor attached to the microsphere surface.
In one illustrative example, 6 separate microsphere regions were first functionalized with a single arm polyethlyglycine (PEG) azide molecule. Each microsphere region was then reacted with an individual, alkyne-functionalized cyclic peptide (with the sequence WIYYI, IYLRY, YWHWS, FWQIL), or an equal combination of all sequences (noted as “polyclonal”). As a control, polyclonal Anti-E2 antibody was attached to a bead region for performance comparison against the peptide constructs. In an analogous experiment, the exact same process was repeated, except the single arm PEG azide molecule was switched to a 3-arm PEG azide molecule.
The details of some of the synthesis and experimental techniques useful in the embodiments herein can be found in United States Patent Application Publication No. US 2017/0349754 A1, by Matthew B. Coppock, published Dec. 7, 2017, M. B. Coppock et al., “A novel discovery, maturation, and assay integration approach for the development of ruggedized multi-valent capture receptors exemplified against the chikungunya virus E2 protein,” Sensing and Bio-Sensing Research 22 (2019) 100248, and M. B. Coppock, D. N. Stratis-Cullum, “A universal method for the functionalization of dyed magnetic microspheres with peptides,” Methods 158 (2019) 12-16, all of which, including their supplemental parts and appendices, are incorporated by reference herein in their entirety. […]

Read-outs that look alike come from different tables or passages of the source.

Experimental findings from patent US11613746B2, “Methods for developing virus protein specific capture agents, capture agents, and methods of using the capture agents” (priority 2019, dated 2023) are described below.

Consider WIYYI, for which, for the setting “heated at 90° C. for 1 hr, result in words”, the “binding activity remaining after heating” value is given as “no loss in binding activity”. Moreover, the “binding performance compared to commercially available antibody raised against E2” value (multi-arm constructs, result in words) is “outperform the antibody”.

By EC50 is commonly meant the midpoint of the concentration-response curve. Take “WIYYI (chains of the parent or of the whole protein)”: the 50% effective concentration (EC50) by setting is: (heated at 90° C. for 1 hr before assay, read-out: EC50 (binding activity for CHIKV E2) after heating) 0.245 ± 0.005 nM; (unheated control, LUMINEX assay, read-out: EC50 (binding activity for CHIKV E2) before heating) 0.232 ± 0.006 nM.
